19 molecules from patent publication US20260191850A1, “USE OF 8-HYDROXYQUINOLINE DERIVATIVE” (Jiangsu Yahong Meditech Co., Ltd., priority 2022, published 2026) can be followed below.

Where “and” joins values, the source holds several entries; their conditions need not be identical. Equal values may be shown once. Where a name gives a salt, the structure may show the parent alone. Read-outs that look alike come from different tables or passages of the source.

Data set [1] concerns Human Papillomavirus 11 (HPV11). In words: Transient transfection HPV replication assay (E1/E2 plasmids, NanoLuc reporter), HPV11. The data set is classed as cell-based. The following applies: HPV11 strain HE611260.1, C-33 A cells; for EC50: 48 hours. The method, then:
The antiviral activity of 7-nitro-8-hydroxyquinoline derivatives against human papillomavirus (HPV) was tested and evaluated using transient transfection assays. This evaluation system included plasmids expressing viral helicase E1 and replication origin binding protein E2, plasmids containing NanoLuc gene of which the expression was driven by a TK promoter (Promega company), and replication origin sequences of human papillomavirus strains listed below. […] The positions of replication origin sequences of the three NanoLuc reporter plasmids were 7825-7993:1-99, 7662-7901:1-99, and 7740-7837:1-102 for HPV-11 (NCBI Accession No. HE611260.1), HPV-16 (NCBI Accession No. KP212151.1), and HPV-18 (NCBI Accession No. KC470230.1), respectively. The positions of E1 open reading frame (ORF) sequences corresponding to HPV-11, HPV-16 and HPV-18 were 832-2781, 864-2813 and 914-2887 in the same sequences, respectively. The positions of E2 open reading frame (ORF) sequences corresponding to HPV-11, HPV-16 and HPV-18 were 2723-3826, 2755-3852 and 2817-3908 in the same sequences, respectively. The cells used for transient transfection were C-33A cells (ATCC HTB-31), and the culture medium was DMEM supplemented with Earle's salt, L-glutamine and 2% fetal bovine serum. In the experiment, the NanoLuc expression plasmid (5 ng/well) was co-transfected with the E1 and E2 expression plasmids of the homologous virus by using Lipofectamine LTXL and Plus Reagent (Invitrogen product, Thermo Fisher Scientific company). […] Meanwhile, the transfected cells were also seeded into duplicated dishes containing the same dilution of test drugs to assess cytotoxicity. All transfected monolayer cells were incubated at 37° C. for 48 hours. The NanoLuc activity expressed by the reporter plasmids was detected with Nano-Glo reagent (Promega company), the cell viability in cytotoxicity plates was measured with CellTiter-Glo reagent (Promega company), and the luminescence intensity was quantified on a microplate reader. The meanings of EC50, CC50, and SI50 were the same as those well-known in the art (where SI50=CC50/EC50), and were not described here. […]

The subject of data set [2] is Human Papillomavirus 18 (HPV18). The experiment in a line: Transient transfection HPV replication assay (E1/E2 plasmids, NanoLuc reporter), HPV18. The data set is classed as cell-based. To be noted: HPV18 strain KC470230.1, C-33 A cells; for EC50: 48 hours. The method, then:
(§1) The antiviral activity of 7-nitro-8-hydroxyquinoline derivatives against human papillomavirus (HPV) was tested and evaluated using transient transfection assays. This evaluation system included plasmids expressing viral helicase E1 and replication origin binding protein E2, plasmids containing NanoLuc gene of which the expression was driven by a TK promoter (Promega company), and replication origin sequences of human papillomavirus strains listed below. […] The positions of replication origin sequences of the three NanoLuc reporter plasmids were 7825-7993:1-99, 7662-7901:1-99, and 7740-7837:1-102 for HPV-11 (NCBI Accession No. HE611260.1), HPV-16 (NCBI Accession No. KP212151.1), and HPV-18 (NCBI Accession No. KC470230.1), respectively. The positions of E1 open reading frame (ORF) sequences corresponding to HPV-11, HPV-16 and HPV-18 were 832-2781, 864-2813 and 914-2887 in the same sequences, respectively. The positions of E2 open reading frame (ORF) sequences corresponding to HPV-11, HPV-16 and HPV-18 were 2723-3826, 2755-3852 and 2817-3908 in the same sequences, respectively. The cells used for transient transfection were C-33A cells (ATCC HTB-31), and the culture medium was DMEM supplemented with Earle's salt, L-glutamine and 2% fetal bovine serum. In the experiment, the NanoLuc expression plasmid (5 ng/well) was co-transfected with the E1 and E2 expression plasmids of the homologous virus by using Lipofectamine LTXL and Plus Reagent (Invitrogen product, Thermo Fisher Scientific company). […] Meanwhile, the transfected cells were also seeded into duplicated dishes containing the same dilution of test drugs to assess cytotoxicity. All transfected monolayer cells were incubated at 37° C. for 48 hours. The NanoLuc activity expressed by the reporter plasmids was detected with Nano-Glo reagent (Promega company), the cell viability in cytotoxicity plates was measured with CellTiter-Glo reagent (Promega company), and the luminescence intensity was quantified on a microplate reader. The meanings of EC50, CC50, and SI50 were the same as those well-known in the art (where SI50=CC50/EC50), and were not described here.
(§2) J Med Chem. 2016; 59 (23): 10470-8. • Kachaeva, M. et al. In vitro activity of novel 1,3-oxazole derivatives against HPV. Ibnosina J Med Biomed Sci. 2017; 9 (4): 111-8.

The subject of data set [3] is C-33A cells (ATCC HTB-31). The experiment in a line: in vitro. As for the experimental part: as §1, §2
Data set [4] has as its system Human Papillomavirus 16 (HPV16). In words: Transient transfection HPV replication assay (E1/E2 plasmids, NanoLuc reporter), HPV16. The format is cell-based. The method, then:
as §1, §2

A short description of another data set: in vitro. To be noted: human. As for the experimental part:
as §1, §2

[5] abbreviates: Human papillomavirus 16, C-33-A, 48 h.
Setting [6] is: C-33 A cells transfected with HPV11 (HE611260.1) plasmids, 48 hours.
[7] abbreviates: C-33 A cells transfected with HPV16 (KP212151.1) plasmids, 48 hours.
[8] abbreviates: C-33 A cells transfected with HPV18 (KC470230.1) plasmids, 48 hours.

For `O=[N+]([O-])c1ccc(O)c2ncccc12` [Compound A2, 5-nitro-8-hydroxyquinoline, reference compound], the EC50 amounted to 1.04 µM in data set [1] (human papillomavirus 11) and 1.01 µM in data set [2] (human papillomavirus 18).

In data set [3], “4-methoxy-7-nitroquinolin-8-ol [Example 21]” showed a CC50 of 22.2 µM. The molecule further came in with an EC50 in data set [1] above 6 µM.

In the case of `O=[N+]([O-])c1ccc2c(Cl)c(C3CC3)cnc2c1O` [Compound 74, 4-chloro-3-cyclopropyl-7-nitroquinolin-8-ol], the EC50 was 0.15 µM in data set [4] (setting [5]), 0.57 µM in data set [1] (human papillomavirus 11) and below 0.05 µM in data set [2] (human papillomavirus 18). Moreover, the CC50 at 48 h in the data set “in vitro” (CC50) was determined as 34.4 µM.

Turning to `CNc1c([N+](=O)[O-])c(O)c2ncccc2c1Cl` [Compound 7, 5-chloro-6-(methylamino)-7-nitroquinolin-8-ol], in “in vitro” (CC50), the CC50 at 48 h was found to be 19.1 µM. Further, in data set [1] (human papillomavirus 11), the EC50 was determined as 5.22 µM.

For `O=[N+]([O-])c1ccc2c(C3CCCCC3)ccnc2c1O` [Compound 32, 4-cyclohexyl-7-nitroquinolin-8-ol], the EC50 was 0.08 µM in data set [4] (setting [5]), below 0.05 µM in data set [1] (human papillomavirus 11) and below 0.05 µM in data set [2] (human papillomavirus 18).

With `CN(C)C(=O)N1CCN(c2ccnc3c(O)c([N+](=O)[O-])ccc23)CC1` [Example 25, 4-(8-hydroxy-7-nitroquinolin-4-yl)-N,N-dimethylpiperazine-1-carboxamide], the EC50 in data set [4] (HPV16 strain KP212151.1, C-33 A cells, 48 hours, read-out: EC50) is 0.09 µM; in data set [1] it was below 0.05 µM; in data set [2], 0.1 µM. The CC50 in data set [3] (setting [6]) was found to be 3.36 µM; in data set [3] (setting [7]), 7.53 µM; in data set [3] (setting [8]), 5.88 µM.

Take `O=[N+]([O-])c1cc(Cl)c2c(C(F)(F)F)ccnc2c1O` [Compound 73, 5-chloro-7-nitro-4-(trifluoromethyl)-quinolin-8-ol hydrochloride]: the EC50 in data set [4] (setting [5]) turned out to be 0.07 µM; in data set [1] (human papillomavirus 11) it was 0.06 µM. Further, the CC50 at 48 h in “in vitro” (CC50, C-33 A cells transfected with HPV11 (HE611260.1) plasmids, 48 hours) is 8.5 µM; in “in vitro” (CC50, C-33 A cells transfected with HPV16 (KP212151.1) plasmids, 48 hours), 8.32 µM.

Consider `O=[N+]([O-])c1ccc2c(C(F)(F)F)ccnc2c1O` [Compound 62, 7-nitro-4-trifluoromethylquinolin-8-ol], for which the CC50 at 48 h in “in vitro” (CC50) was 5.5 µM. In data set [1] (human papillomavirus 11), the EC50 was above 1.2 µM.

On to `O=[N+]([O-])c1ccc2c(NC3COC3)ccnc2c1O` [Example 19, 7-nitro-4-(3-oxetanylamino)quinolin-8-ol], for which the CC50 in data set [3] (setting [6]) turned out to be 4 µM. In data set [1], this molecule registered a half-maximal effective concentration (EC50) of 0.52 µM.

The molecule `O=[N+]([O-])c1c(Cl)c(F)c2cccnc2c1O` [Compound 123, 6-chloro-5-fluoro-7-nitroquinolin-8-ol] had a CC50 at 48 h in “in vitro” (CC50) of 29.8 µM. The EC50 in data set [1] (human papillomavirus 11) was above 6 µM.

In the case of `N#Cc1c(Cl)c(Cl)c2cccnc2c1O` [Compound 133, 5,6-dichloro-7-cyano-8-hydroxyquinoline], in “in vitro” (CC50), the CC50 at 48 h came out at 5.59 µM. The EC50 in data set [1] (human papillomavirus 11) is above 1.2 µM.

Take `O=[N+]([O-])c1cc(Cl)c2c(N3CCCCC3)ccnc2c1O` [Compound 36, 5-chloro-7-nitro-4-piperidinylquinolin-8-ol]: the EC50 in data set [4] (setting [5]) is 0.69 µM; in data set [1] (human papillomavirus 11), below 0.05 µM; in data set [2] (human papillomavirus 18), 0.27 µM.

The molecule `Cc1cc(C#N)c(O)c2ncccc12` [Compound A1] yielded a CC50 at 48 h in the data set “in vitro” (CC50) of 20.2 µM. This molecule yielded an EC50 in data set [1] (human papillomavirus 11) above 6 µM.

Consider `O=[N+]([O-])c1cc(Cl)c2c(Cl)ccnc2c1O` [Compound 29, 4,5-dichloro-7-nitroquinolin-8-ol], for which, in the data set “in vitro”, the CC50 at 48 h is 8.74 µM. In data set [1] (human papillomavirus 11), the EC50 turned out to be 2.96 µM.

In the case of `Nc1nc2c(ncn2CCOCP(=O)(O)O)c(=O)[nH]1` [Positive control drug, 9-[2-(phosphonylmethoxy)ethyl]guanine, reference compound], the concentration for an effect of 90% (EC90) in data set [4] (HPV16 strain KP212151.1, C-33 A cells) was 2.3 µM; in data set [1], 4.47 µM; in data set [2], above 150 µM. Besides, the CC50 in data set [3] (setting [6]), in data set [3] (setting [7]) and in data set [3] (setting [8]) was above 150 µM throughout. For the same molecule, the EC50 in data set [1] was 1.26 µM and 1.03 µM.

Regarding `Cc1ccnc2c(O)c(C#N)cc(Cl)c12` [Compound 131, 4-methyl-5-chloro-7-cyano-8-hydroxyquinoline], the figures for the EC50 in data set [4] (setting [5]), in data set [1] (human papillomavirus 11) and in data set [2] (human papillomavirus 18) were 0.55 µM, 0.53 µM and 0.14 µM, respectively.

In turn, `O=[N+]([O-])c1ccc2c(C3CCCCC3)ccnc2c1O` [Example 32, 4-cyclohexyl-7-nitroquinolin-8-ol] yielded a CC50 in data set [3] above 150 µM. In data set [1], this molecule returned an EC50 of 3.99 µM.

In the data set “in vitro” (CC50), `O=[N+]([O-])c1c(Cl)c(Cl)c2cccnc2c1O` [Compound 115, 5,6-dichloro-7-nitroquinolin-8-ol] came in with a CC50 at 48 h of 112 µM. In addition, in data set [1] (human papillomavirus 11), the EC50 was above 30 µM.

On to `O=[N+]([O-])c1c(Br)c(Cl)c2cccnc2c1O` [Compound 114, 6-bromo-5-chloro-7-nitroquinolin-8-ol], for which the CC50 at 48 h in the data set “in vitro” was determined as 30 µM. Besides, the EC50 in data set [1] (human papillomavirus 11) is above 6 µM.
